US20230248037A1, “FLAVOUR ADDITIVES” (MARS, INCORPORATED, priority 2012, published 2023)

These compounds were tested on T1R1/T1R3 receptor (umami receptor) (assay: In vitro screening for binding and activation of the umami receptor). Conditions: feline umami receptor.
Type: cell-based, cat
Experimental: In vitro screening was carried out in order to establish which first amino acids bind and activate the umami receptor.
In vitro screening was carried out in order to establish which second amino acids bind and activate the umami receptor.

Compound | binding to the feline umami receptor
N[C@@H](CC(=O)O)C(=O)O [aspartic acid] | does not bind
N[C@@H](CCC(=O)O)C(=O)O [glutamic acid] | does not bind

Same assay, conditions: in silico modelling and in vitro assays using a non-human umami receptor; screening in the presence of 0.2 mM IMP

Compound | binding to and activation of the umami receptor
N[C@@H](Cc1ccccc1)C(=O)O [phenylalanine] | able to bind to and activate the umami receptor to different extents
C[C@H](N)C(=O)O [alanine] | able to bind to and activate the umami receptor to different extents
N[C@@H](Cc1c[nH]cn1)C(=O)O [histidine] | able to bind to and activate the umami receptor to different extents
N[C@@H](CO)C(=O)O [serine] | able to bind to and activate the umami receptor to different extents
N[C@@H](CS)C(=O)O [cysteine] | able to bind to and activate the umami receptor to different extents
CC(C)C[C@H](N)C(=O)O [leucine] | able to bind to and activate the umami receptor to different extents
NCC(=O)O [glycine] | able to bind to and activate the umami receptor to different extents
NC(=O)C[C@H](N)C(=O)O [asparagine] | able to bind to and activate the umami receptor to different extents
N[C@@H](Cc1c[nH]c2ccccc12)C(=O)O [tryptophan] | able to bind to and activate the umami receptor to different extents
CSCC[C@H](N)C(=O)O [methionine] | able to bind to and activate the umami receptor to different extents
N[C@@H](Cc1ccc(O)cc1)C(=O)O [tyrosine] | able to bind to and activate the umami receptor to different extents

These compounds were tested on cats (assay: 2-bottle choice difference test of tastant solutions in water, intake by cats). Conditions: amino acids of the second group.
Set-up: species or system cat
Experimental: Cats were allowed access to water containing either 25 mM proline+25 mM histidine with a composition comprising 50 mM histidine. The methodology used a 2-bottle choice test with 24 cats (the final number of cats for each test can vary due to data being discarded by spillage, etc.). Cats were housed individually during trial periods and had free access to water available between testing periods. The test involved a choice test between the tastant/mixture at a given concentration dissolved in deionised water versus deionised water only or another tastant/mixture. Control was made for positional bias (e.g. A/B exposure 1 and B/A exposure 2) and evaporation loss. The testing time was 36 hours (i.e. 18 hours per day, allowing a two-day crossover). Following two consecutive days of each testing, cats had two consecutive days of rest. Cats were offered a dry diet as a single meal at the start of the test period for one hour, calculated to meet the individual requirements for each cat.

Compound | acceptance (flavour effect) in in vivo tests
C[C@@H](O)[C@H](N)C(=O)O [threonine] | positive acceptance
O=C(O)[C@@H]1C[C@@H](O)CN1 [hydroxyproline] | positive acceptance
CC(C)[C@H](N)C(=O)O [valine] | positive acceptance
NCCC[C@H](N)C(=O)O [ornithine] | positive acceptance
N[C@@H](CSSC[C@H](N)C(=O)O)C(=O)O [cystine] | positive acceptance
N[C@@H](CC(=O)O)C(=O)O [aspartic acid] | positive acceptance
NC(=O)CC[C@H](N)C(=O)O [glutamine] | positive acceptance
NCCCC[C@H](N)C(=O)O [lysine] | positive acceptance
N[C@@H](CCC(=O)O)C(=O)O [glutamic acid] | positive acceptance
O=C(O)[C@@H]1CCCN1 [proline] | positive acceptance
CC[C@H](C)[C@H](N)C(=O)O [isoleucine] | positive acceptance
